From patent US20090149417A1, “Methods and compositions for the treatment of cancer using benzopyrone-type PARP inhibitors” (priority 2007, published 2009)
pIC50: −log10 of the molar value. Read-outs that look alike come from different tables or passages of the source.

Key:
[1] = tested on: human MX-1 breast carcinoma; test: Human MX-1 breast carcinoma xenograft model in nude mice; type: in vivo
Procedure: Female athymic nude mice (nu/nu, Harlan) are 10 weeks old, and have a body weight (BW) range of 18.1-27.0 g on D1 of the study. The animals are fed ad libitu water (reverse osmosis, 1 ppm Cl) and NIH 31 Modified and Irradiated Lab Diet® consisting of 18.0% crude protein, 5.0% crude fat, and 5.0% crude fiber. The mice are housed on irradiated ALPHA-dri® bed-o-cobs® Laboratory Animal Bedding in static microisolators on a 12-hour light cycle at 21-22° C. (70-72° F.) and 40-60% humidity. PRC specifically complies with the recommendations of the Guide for Care and Use of Laboratory Animals with respect to restraint, husbandry, surgical procedures, feed and fluid regulation, and veterinary care. […]
The human MX-1 breast carcinoma utilized in the present study is maintained in nude mice by serial engraftment. […] Tumors are monitored twice weekly and then daily as their volumes approached 80-120 mm^3. […] Tumor size, in mm3, is calculated from: […]
Tumors are calipered twice weekly for the duration of the study. […] The time to endpoint (TTE) for each mouse is calculated according to the following equation: […]
where TTE is expressed in days, endpoint volume is in mm3, b is the intercept, and m is the slope of the line obtained by linear regression of a log-transformed tumor growth data set. […] The calculated TTE is usually less than the day on which an animal is euthanized for tumor size. […]

MDA-MB-231 = test: BrdU chemiluminescent cell proliferation assay; type: cell-based, human; details: for pIC50: Homo sapiens, MDA-MB-231, 72 h, 72 hour treatment
Procedure: (§1) Test Agents—Cells are treated 24 hours after plating (Day 1) with vehicle or test agents at concentrations of 0.1 μM, 0.3 μM, 1 μM, 3 μM, 10 μM, 30 μM and 100 μM.
(§2) Tumor Cell Lines—Tumor cell lines (Table 1) are obtained from the American Type Cell Collection (ATCC, Rockville, Md.) or NCI-DCTD Tumor Repository (Bethesda, Md.) and maintained in proper growth media supplemented with 10% fetal bovine serum (FBS, NovaTech), and are maintained in specified growth media. Cells are propagated at 37° C. in a humidified atmosphere containing 5% carbon dioxide.
(§3) Cell proliferation assay—Cell proliferation is determined using BrdU chemiluminescent assay, which measures incorporation of 5-bromo-2′-deoxyuridine (BrdU) into the genomic DNA of proliferating cells. Briefly, cells are added with BrdU for 4 hours, during which time it incorporates into the DNA of dividing cells in place of thymidine. Following labeling, cells are fixed and DNA denatured in one step by adding a FixDenat® denaturizing solution. After removing FixDenat, an anti-BrdU-peroxidase conjugated antibody is added, which binds to BrdU incorporated into newly-synthesized cellular DNA. Following antibody incubation, cells are washed 3 times with PBS and subjected to luminescent analysis. The reaction product is quantified by measuring light emission using a scanning multi-well luminometer (luminescence ELISA reader.)
(§4) Experimental Design—Tumor cells (Table 1) are grown to 70% confluency, trypsinized, counted and seeded in 96 well flat-bottom plates at final concentrations of 7.5×103-3×10^4 cells/well (Day 0); treatment with IIIg begins on Day 1 and continues for 68 hours (Table 2). Doses for both compounds range between […] and 100 μM. At the 68 hour time point, viable cell number is measured by BrdU assay as described above. Experiments are repeated at least twice at the same doses to determine inhibition of cell proliferation. Results from these studies are used to calculate an IC50 value (drug concentration that results in half-maximal response) for IIIg in each line.
(§5) For single studies, data from each experiment is collected and expressed as % Inhibition of Cell Proliferation (% ICP) using the following calculation.
(§6) % ICP=100%×[(1−(RLUtest/RLUvehicle)]
(§7) Where RLUtest is the relative light unit of the tested sample, and RLUvehicle is the relative light unit of the vehicle in which the drug is dissolved. An IC50 value is calculated from % ICP (PRISM® GraphPad software) using the formula:
(§8) y=min+(max−min)/(1+10^(Log(IC50)−x)×Hillslope)
(§9) Where (x) is the logarithm of agonist concentration, (y) is the response, and (min) and (max) are the variable lower and upper plateaus, respectively. The variable Hillslope characterizes the slope of the curve at its midpoint. The IC50 is the drug concentration for y halfway between min and max.

NIH: OVCAR-3 = test: BrdU chemiluminescent cell proliferation assay; type: cell-based, human; details: for pIC50: Homo sapiens, OVCAR-3, 72 h, 72 hour treatment
Procedure: as §1, §2, §3, §4, §5, §6, §7, §8, §9

[2] = mean of Exp1 and Exp2, read-out: Mean IC50

SMILES: O=c1ccc2c(I)c([N+](=O)[O-])ccc2o1 [IIIg, 5-iodo-6-nitro-benzopyrone]
- Survival of tumor-bearing animals ([1]; biweekly intraperitoneal injection, 100 mg/kg): prolongs survival
- Tumor growth ([1]; once-daily or twice-weekly administration): inhibits tumor growth
- pIC50 (MDA-MB-231; Exp1, read-out: IC50): 4.62
- pIC50 (MDA-MB-231; Exp2, read-out: IC50): 4.61
- pIC50 (MDA-MB-231; [2]): 4.62
- Mean Maximum % Response (MDA-MB-231; Max Concentration 100 μM): 99%
- pIC50 (NIH: OVCAR-3; Exp1, read-out: IC50): 4.52
- pIC50 (NIH: OVCAR-3; Exp2, read-out: IC50): 4.53
- pIC50 (NIH: OVCAR-3; [2]): 4.52
- Mean Maximum % Response (NIH: OVCAR-3; Max Concentration 100 μM): 98%
